This is an account of results in article PMC11131246, “Molecular determinants for brain targeting by peptides: a meta-analysis approach with experimental validation” (Fluids and Barriers of the CNS, 2024).

Like-named read-outs stand apart in the source and are kept apart here. Residues, ends and D or L forms follow the SMILES beside them. No end group written: not given here.

The test system of one data set is HBEC-5i cells. The data set can be described thus: Translocation across in vitro BBB model (HBEC-5i monolayer, transwell). The data set is classed as in vitro ADME, human. The note with it: HBEC-5i monolayer on AF-coated PET transwell inserts (1.0 µm pores), 8 days, CF-peptide 5.0 µM in DMEM:F12 without phenol red added to apical side, 24 h, fluorescence, plate reader, mean ± SD, triplicates of three independent experiments. How it is done: Throughout 8 days, medium was changed every other day. On the day of the experiment, cells were washed twice with 1X PBS (137.0 mM NaCl, 2.7 mM KCl, 10.0 mM Na2HPO4, and 1.8 mM KH2PO4), and once with DMEM:F12 without phenol red. Then, CF-peptides (5.0 μM, in DMEM:F12 without phenol red) were added to the apical side of the in vitro BBB model and incubated for 24 h. Finally, samples from the apical and basolateral side were collected and fluorescence intensity analyzed using a Varioskan^TM LUX multimode microplate reader (Thermo Fisher, Spain). […] Experiments were performed in triplicates on different days using three independently grown cell cultures. Seeking experimental support for our hypothesis, we have synthesized and tested in vitro the activity of ten peptides (Table 1), selected among the 14 BBBpS entries by their lowest S score in an OLS ranking.

Data set [1] can be described thus: Cytotoxicity, CellTiter-Blue cell viability assay. The data set is classed as cell-based. Particulars: human; CellTiter-Blue, peptides 0.05–100.0 µM, 24 h; triplicates, three independent cultures; read-out: Cytotoxicity IC50 HeLa. The method, then:
(§1) Peptide cytotoxicity was determined using the CellTiter-Blue® cell viability assay, following a described protocol. Briefly, all cell lines were carefully harvested with trypsin–EDTA and seeded 10.000–20.000 cells/100 μL into 96-well clear flat-bottomed polystyrene plates (Corning, USA) for 24 h. After medium removal, cells were washed twice with 1X PBS, and 100 µL of previously diluted peptides (range from 0.05–100.0 µM) in the respective medium were added to cells. Then, after 24 h, cells were washed twice with 1X PBS and 20 µL of CellTiter-Blue® Reagent (diluted in 100 µL of medium) was added to each well and incubated for 3 h in culturing conditions. The fluorescence intensity was measured using Varioskan™ LUX multimode microplate reader.
(§2) IC50 values were determined using GraphPad Prism 7.0 software using a log(inhibitor) versus normalized response. Experiments were performed in triplicates on different days using three independently grown cell cultures.
For orientation: Alamar Blue is a resazurin reagent that responds to reducing activity.

A short description of data set [2]: Cytotoxicity, CellTiter-Blue cell viability assay. The format is cell-based. Particulars: human; CellTiter-Blue, peptides 0.05–100.0 µM, 24 h; triplicates, three independent cultures; read-out: Cytotoxicity IC50 HEK-293. How it is done:
as §1, §2

Data set [3] in a line: Cytotoxicity, CellTiter-Blue cell viability assay. The data set is classed as cell-based. Particulars: human; CellTiter-Blue, peptides 0.05–100.0 µM, 24 h; triplicates, three independent cultures; read-out: Cytotoxicity IC50 Hs68. How it is done:
as §1, §2

A short description of data set [4]: Cytotoxicity, CellTiter-Blue cell viability assay. The data set is classed as cell-based. Particulars: human; read-out: Cytotoxicity IC50 HBEC-5i. The method, then: as §1, §2
Data set [5] can be described thus: Cytotoxicity, CellTiter-Blue cell viability assay. The format is cell-based. Particulars: human; CellTiter-Blue, peptides 0.05–100.0 µM, 24 h; triplicates, three independent cultures. How it is done:
as §1, §2

Data set [6] is described as follows: Biodistribution of 67Ga-radiolabeled peptides. Particulars: in vivo, iv, 100 uCi, total radioactivity, i.v. tail vein, mean ± SD, n = 3; for tissue uptake at 1 h: female, CD1, mouse, 1 h post injection. Further details: species or system mouse. The method, then:
All animal experiments were performed in compliance with national and EU legislation for good practices on laboratory animal science. The animals were housed in a temperature and humidity-controlled environment with a 12 h light/12 h dark schedule. Biodistribution of radiolabeled peptides was performed on 7 weeks old CD1 female mice.
Animals were intravenously injected into the tail vein with 100 µL of a 25 µM saline solution of the ^67Ga-peptide with a radioactivity around 100 µCi. The mice were euthanized by cervical dislocation at 2 min and 1 h after injection. The dose administered and the radioactivity in the euthanized animals was measured using a dose calibrator (Carpintec CRC-15W, Ramsey, USA). The difference between the radioactivity in the injected and the euthanized animals was assumed to be due to excretion. Brain and tissues of interest without previous perfusion were dissected, washed, and weighed, and their radioactivity was measured using a γ counter (Hidex AMG, Hidex, Turku, Finland). The uptake in the brain and tissues of interest was calculated and expressed as a percentage of injected radioactivity dose per gram of tissue (% ID/g).

A short description of data set [7]: Analytical RP-HPLC retention time (used as indication of hydrophobicity). The format is physicochemical. Particulars: analytical reverse phase HPLC, UV chromatogram; free and CF-labelled peptides.

A word on the IC50: it is the concentration that gives 50% inhibition. For the compound EEGRLYMRYYSPTTRRYG-NH2 [BBBpS_3], the “Translocation (%) HBEC-5i” value in the data set with HBEC-5i cells turned out to be 35.7 ± 3.6%. Moreover, the half-maximal inhibitory concentration (IC50) at 24 h in data set [1], in data set [2], in data set [3], in data set [4] and in data set [5] was more than 100 µM each time.
“KKKKQPPKPKKPKTQEKKKKQPPKPKR-NH2 [non-BBBpS_1]”: in the data set with HBEC-5i cells, the “Translocation (%) HBEC-5i” value is 20.0 ± 3.5%. Further, the IC50 at 24 h in data set [1], in data set [2], in data set [3], in data set [4] and in data set [5] was more than 100 µM throughout.
In the case of `CC[C@H](C)[C@H](NC(=O)CNC(=O)[C@H](CCCNC(=N)N)NC(=O)[C@H](Cc1ccc(O)cc1)NC(=O)[C@H](CS)NC(=O)[C@@H](NC(=O)[C@H](CCCNC(=N)N)NC(=O)[C@H](Cc1ccccc1)NC(=O)[C@H](CS)NC(=O)[C@H](Cc1c[nH]c2ccccc12)NC(=O)[C@@H](N)CCCCN)C(C)C)C(=O)N[C@@H](CS)C(=O)N[C@@H](Cc1ccc(O)cc1)C(=O)N[C@@H](CCCNC(=N)N)C(=O)N[C@@H](CCCNC(=N)N)C(=O)N[C@@H](CS)C(=O)N[C@@H](CCCNC(=N)N)C(N)=O` [non-BBBpS_2] (H-KWCFRVCYRGICYRRCR-NH2), the “Translocation (%) HBEC-5i” value in the data set on HBEC-5i cells worked out at 2.6 ± 1.2%. The tissue uptake at 1 h came to 0.13 ± 0.03 %ID/g in data set [6] (brain without perfusion, CD1 female mice, γ counter, read-out: Tissue distribution, Brain (brain uptake)) and 22.8 ± 10.1 %ID/g in data set [6] (liver, CD1 mice, read-out: Tissue distribution, Liver). For the same compound, in data set [6] (mouse, brain without perfusion, 2 min post injection, CD1 female mice, 100 µL of 25 µM 67Ga-peptide, γ counter, read-out: Tissue distribution, Brain (brain uptake)), the tissue uptake at 2 min was 0.27 ± 0.04 %ID/g. The “HPLC tR” value in data set [7] is recorded as 6.81 min. Also, the IC50 at 24 h came out at 39.4 ± 1.8 µM in data set [1]; 14.7 ± 1.4 µM in data set [2]; 26.4 ± 2.9 µM in data set [3]; 20.7 ± 1 µM in data set [4]; 26.9 ± 3 µM in data set [5].
